The NIST ThermoML archive (doi:10.1021/je900812v)
Numbers after ± are expanded uncertainties.

How the values were obtained:
[1] = Liquid; for mass density: 298.15 K, 101.33 kPa, Pycnometric method
[2] = refractive index (Na D-line) (dimensionless); details: 298.15 K; 101.33 kPa; Liquid; Standard Abbe refractometry
[3] = Boiling temperature at pressure P; details: 101.3 kPa; Liquid; Ebulliometric method (Recirculating still)

## CC(C)CCO [3-methylbutan-1-ol]
[1]
  mass density: 807.6 ± 0.2 kg/m3
[1]; 336.35 K
  vapor or sublimation pressure: 5.27 ± 0.27 kPa
[1]; 346.9 K
  vapor or sublimation pressure: 9.25 ± 0.28 kPa
[1]; 354.2 K
  vapor or sublimation pressure: 12.96 ± 0.3 kPa
[1]; 354.3 K
  vapor or sublimation pressure: 13.24 ± 0.3 kPa
[1]; 356.85 K
  vapor or sublimation pressure: 14.83 ± 0.32 kPa
[1]; 359.75 K
  vapor or sublimation pressure: 17.09 ± 0.33 kPa
[1]; 360.65 K
  vapor or sublimation pressure: 17.61 ± 0.33 kPa
[1]; 363.55 K
  vapor or sublimation pressure: 20.13 ± 0.4 kPa
[1]; 364.05 K
  vapor or sublimation pressure: 20.81 ± 0.35 kPa
[1]; 365.45 K
  vapor or sublimation pressure: 21.98 ± 0.37 kPa
[1]; 368.3 K
  vapor or sublimation pressure: 25.18 ± 0.38 kPa
[1]; 369.5 K
  vapor or sublimation pressure: 26.24 ± 0.38 kPa
[1]; 371.5 K
  vapor or sublimation pressure: 28.64 ± 0.4 kPa
[1]; 380.65 K
  vapor or sublimation pressure: 41.65 ± 0.53 kPa
[1]; 381.65 K
  vapor or sublimation pressure: 43.64 ± 0.54 kPa
[1]; 389.6 K
  vapor or sublimation pressure: 59.58 ± 0.67 kPa
[1]; 391.35 K
  vapor or sublimation pressure: 64.3 ± 0.62 kPa
[1]; 392.65 K
  vapor or sublimation pressure: 66.58 ± 0.64 kPa
[1]; 395.55 K
  vapor or sublimation pressure: 74.19 ± 0.68 kPa
[1]; 396.9 K
  vapor or sublimation pressure: 77.47 ± 0.7 kPa
[1]; 398.25 K
  vapor or sublimation pressure: 81.46 ± 0.76 kPa
[1]; 403.05 K
  vapor or sublimation pressure: 96.21 ± 1.2 kPa
[1]; 403.75 K
  vapor or sublimation pressure: 99.99 ± 0.84 kPa
[1]; 404.55 K
  vapor or sublimation pressure: 101.33 ± 0.7 kPa
[1]; 405.15 K
  vapor or sublimation pressure: 103.46 ± 0.88 kPa
[1]; 408.05 K
  vapor or sublimation pressure: 114.26 ± 0.94 kPa
[1]; 410.95 K
  vapor or sublimation pressure: 125.72 ± 0.97 kPa
[1]; 413.05 K
  vapor or sublimation pressure: 133.86 ± 0.98 kPa

## CC(=O)OCCC(C)C [3-methylbutyl ethanoate]
[1]
  mass density: 866.4 ± 0.2 kg/m3
[1]; 368.15 K
  vapor or sublimation pressure: 22.4 ± 0.4 kPa
[1]; 369.35 K
  vapor or sublimation pressure: 23.4 ± 0.4 kPa
[1]; 370.65 K
  vapor or sublimation pressure: 24.6 ± 0.4 kPa
[1]; 371.85 K
  vapor or sublimation pressure: 25.7 ± 0.4 kPa
[1]; 372.45 K
  vapor or sublimation pressure: 26.3 ± 0.4 kPa
[1]; 380.65 K
  vapor or sublimation pressure: 35.3 ± 0.4 kPa
[1]; 381.75 K
  vapor or sublimation pressure: 36.7 ± 0.4 kPa
[1]; 387 K
  vapor or sublimation pressure: 43.9 ± 0.5 kPa
[1]; 387.9 K
  vapor or sublimation pressure: 45.2 ± 0.5 kPa
[1]; 390.95 K
  vapor or sublimation pressure: 50 ± 0.5 kPa
[1]; 392.75 K
  vapor or sublimation pressure: 52.9 ± 0.5 kPa
[1]; 394.25 K
  vapor or sublimation pressure: 55.5 ± 0.5 kPa
[1]; 395.65 K
  vapor or sublimation pressure: 58 ± 0.5 kPa
[1]; 398.65 K
  vapor or sublimation pressure: 63.7 ± 0.6 kPa
[1]; 401.85 K
  vapor or sublimation pressure: 70.1 ± 0.6 kPa
[1]; 403.35 K
  vapor or sublimation pressure: 73.3 ± 0.6 kPa
[1]; 407.15 K
  vapor or sublimation pressure: 81.9 ± 0.7 kPa
[1]; 409.55 K
  vapor or sublimation pressure: 87.8 ± 0.7 kPa
[1]; 410.95 K
  vapor or sublimation pressure: 91.3 ± 0.7 kPa
[1]; 412.85 K
  vapor or sublimation pressure: 96.3 ± 0.7 kPa
[1]; 414.15 K
  vapor or sublimation pressure: 99.8 ± 0.7 kPa
[1]; 414.85 K
  vapor or sublimation pressure: 101.7 ± 0.8 kPa
[1]; 415.35 K
  vapor or sublimation pressure: 103.1 ± 0.8 kPa
[1]; 416.45 K
  vapor or sublimation pressure: 106.2 ± 0.8 kPa
[2]
  refractive index: 1.39893 ± 0.0008

## CCCCCO [pentan-1-ol]
[1]
  mass density: 811.2 ± 0.4 kg/m3
[1]; 410.95 K, Ebulliometric method (Recirculating still)
  vapor or sublimation pressure: 101.3 kPa
[3]
  Boiling temperature at pressure P: 137.80 ± 0.3 °C
[2]
  refractive index: 1.4077 ± 0.0008

## CCCCCOC(C)=O [pentyl ethanoate]
[1]
  mass density: 872.3 ± 0.9 kg/m3
[1]; 421.55 K, Ebulliometric method (Recirculating still)
  vapor or sublimation pressure: 101.3 kPa
[3]
  Boiling temperature at pressure P: 148.40 ± 0.3 °C
[2]
  refractive index: 1.4005 ± 0.0009
